Legend:
[1] = system: WT theophylline-binding aptamer (RNA, aptamer) GGCGAUACCAGCCGAAAGGCCCUUGGCAGCGUC; assay: ITC; settings: 100 mM NaCl, 10 mM MgCl2; 100 mM HEPES, 0.1 mM EDTA, pH 7.5, 25 °C
[2] = system: P10 (3MX-binding aptamer) (RNA, aptamer, 2-aminopurine at 10 (replaces A10)) GGCGAUACCAGCCGAAAGGCCAUUGGAAGCGUC; assay: ITC; settings: 100 mM NaCl, 10 mM MgCl2; 100 mM HEPES, 0.1 mM EDTA, pH 7.5, 25 °C
[3] = system: P27 (3MX-binding aptamer) (RNA, aptamer, 2-aminopurine at 27) GGCGAUACCAGCCGAAAGGCCAUUGGAAGCGUC; assay: steady-state 2-aminopurine fluorescence titration; settings: 100 mM NaCl, 10 mM MgCl2; 100 mM HEPES, 0.1 mM EDTA, pH 7.5, 25 °C; 100 nM RNA
[4] = system: WT 3MX-binding aptamer (RNA, aptamer) GGCGAUACCAGCCGAAAGGCCAUUGGAAGCGUC; assay: ITC; settings: 100 mM NaCl, 10 mM MgCl2; 100 mM HEPES, 0.1 mM EDTA, pH 7.5, 25 °C
[5] = system: P10 (theophylline-binding aptamer) (RNA, aptamer, 2-aminopurine at 10 (replaces A10)) GGCGAUACCAGCCGAAAGGCCCUUGGCAGCGUC; assay: ITC; settings: 100 mM NaCl, 10 mM MgCl2; 100 mM HEPES, 0.1 mM EDTA, pH 7.5, 25 °C
[6] = system: P10Z11 (theophylline-binding aptamer) (RNA, aptamer, 2-aminopurine at 10 (replaces A10); 7-deazaguanine at 11) GGCGAUACCAGCCGAAAGGCCCUUGGCAGCGUC; assay: ITC; settings: 100 mM NaCl, 10 mM MgCl2; 100 mM HEPES, 0.1 mM EDTA, pH 7.5, 25 °C

Kd [1] [µM]	Kd [2] [µM]	Kd [3] [µM]	Kd [4] [µM]	Kd [5] [µM]	Kd [6] [µM]	SMILES
1.6 ± 0.5	24 ± 5	3.6 ± 0.3	2.7 ± 2.0	–	–	Cn1c(=O)[nH]c(=O)c2[nH]cnc21
0.86 ± 0.12	–	–	–	9.4 ± 0.8	9.4 ± 0.7	Cn1c(=O)c2[nH]cnc2n(C)c1=O

Reference: paper PMC2857344 (2010)
